Experimental data reported in patent US5985926A, “Method for inhibiting intracellular viral replication” (Cell Therapeutics, Inc., priority 1997, dated 1999).
“Also recorded” adds a separate entry of the source. Read-outs that look alike come from different tables or passages of the source.

Columns and labels:
293-EBNA cells = assay: Viability of 293-EBNA cells, Alamar Blue; type: cell-based, human
Method in brief: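 Viability read with Alamar Blue, a vital dye reduced by mitochondrial dehydrogenases to a soluble product. Signal quantified as the absorbance difference between A570 and A600.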

U1 cells = assay: Cytotoxicity in U1 cells; type: cell-based, human
Source text: We studied the effect of CT-2576 on HIV expression in a chronically HIV-1 infected promonocytic U1 cell line (Folks et al., Science 238:800-802, 1987). […] TNF-α and other cytokines can induce HIV expression in U1 cells. U1 cells also express HIV constitutively when grown to a relatively high density. […] An inhibitor of viral reverse transcriptase is expected to only protect new cells from becoming infected but not to affect viral production from cells already infected with HIV. […] While TNF-α induces HIV expression through activation of NFκB, IL-6 and IL-1 also stimulates HIV expression through other pathways independent of NFκB activation in U1 cells.

[1] = tested on: HIV-1 in U1 cells (constitutive expression); assay: Constitutive HIV-1 p24 antigen expression in chronically infected U1 cells; type: cell-based, HIV-1; human cells; settings: for suppression of constitutive HIV-1 expression (p24): U1 cells plated at high density, in words
Method: (§1) Another assay examined the effect of compounds on chronically HIV-1 infected U1 cells. A relatively high density of U1 cells at 10^4 cells/well were incubated in the absence or presence of compounds for 4 days. HIV-1 p24 antigen expression in the culture media was measured by using a ELISA kit (Abbott). Alternatively, U1 cells were plated at a relatively low density of 2×10^3 cell/well plus or minus TNF at 20 pg/ml and plus or minus compounds. The expression of HIV-1 p24 antigen in culture media was measured by ELISA four days later.
(§2) Stable cell lines 293tar, 293tat and 293tat2 were generated by transfections using conditions described in (Tate et al., FASEB J. 4:227-231, 1990) with the plasmid pHIV.AP alone or along with either pHIV.tat or pSV2tat72, respectively. The assay of HIV-1 p24 antigen expression in the chronically HIV-1-infected promonocytic line U1 after 4 days and in acutely infected peripheral blood lymphocytes (PBL) after 7 days were described (Peterson et al., J. Clin. Invest. 89:574-580, 1992, and Brighty et al., Proc Natl. Acad. Sci. USA 88:7802-7805, 1991).
(§3) This example illustrates that CT2576 inhibited both constitutive and cytokine-induced HIV expression in a chronically-infected U1 cell line. A chronically HIV-1 infected human promonocyte cell line, U1 (Poli et al., J. Exp. Med. 172:151-158, 1990), was used as a model to see if the inhibitory effect of CT2576 on HIV-LTR driven reporter gene expression could be extended to block HIV replication per se in infected cells. TNF-α and IL-6 have been reported to upregulate the expression of HIV-1 in U1 cells (Poli et al., Proc Natl. Acad. Sci. USA 91:108-112, 1994). U1 cells were plated onto 24-well microtiter plates to study the dose-response effect of CT2576 on the constitutive (10^4 cells/well), TNF-α or IL-6 mediated (2×10^3 cells/well) expression of HIV-1. CT2576 was capable of inhibiting the constitutive, the TNF-α mediated, as well as the IL-6 mediated expression of HIV in U1 cells with an IC50 value of less than 1 μM (FIG. 17).

[2] = tested on: HIV-1 in U1 cells (TNF-α mediated expression); assay: TNF-α-mediated HIV-1 p24 antigen expression in chronically infected U1 cells; type: cell-based, HIV-1; human cells; settings: for suppression of TNFα-mediated HIV-1 expression (p24): in words
Method: as §1, §2, §3

[3] = tested on: phosphatidic acid (PA) subspecies in 293tat cells; assay: PA composition of 293tat cells by HPLC; type: cell-based, human
Method: One must first quantitatively and qualitatively separate PAs from the other lipids found in serum by a chemical extraction of lipids and high performance liquid chromatography (HPLC) to separate and detect PAs. […] Briefly, the method of Bligh et al. involves an organic extraction of lipids from biological tissue homogenates or fluids. One volume of sample and three volumes of methanol:chloroform (2:1) are vigorously shaken for 2 min. One volume of chloroform is added and then shaken vigorously for 30 sec. One volume of water is added and then shaken vigorously for 30 sec. The mixture is filtered and the upper aqueous layer is discarded. The lower organic layer contains a mixture of lipid classes. The method of Folch et al. involves the extraction of lipids from biological tissue homogenates or body fluids. One volume of sample plus 20 volumes of chloroform:methanol (2:1) are vigorously shaken for 2 min. The mixture is filtered and an amount of 0.1 N KCl equal to 20% of the extraction mixture volume is added and the mixture is shaken vigorously for 2 min. The aqueous and organic phases are allowed to separate. The upper aqueous layer is discarded. The lower organic layer contains a mixture of lipid classes. […] This method involves separation of lipids into their major classes by normal phase (silica) high performance liquid chromatography (HPLC). A 5 micron, 25 cm×0.45 cm silica HPLC column is connected to a binary solvent delivery system followed with a UV detector. The lipid sample is injected on the column and a solvent gradient is run at 1.0 ml/min. The solvent gradient is hexane:isopropanol:water in the proportions 3:4:0.75 run isocratically for 3 min, then ramped to hexane:isopropanol:water in the proportions 3:4:1.4 in 15 min, then run isocratically at the same proportions for 15 min. Detection is at 206 nm.
One of the steps after cell activation involves the hydrolysis of phosphatidylcholine (PC), the major phospholipid of cellular membranes, by phospholipases C and D, leading to the generation of second messengers, such as PA and DG, in the signal transduction cascade.

SMILES | toxic concentration (not toxic at concentrations up to), 293-EBNA cells (293-EBNA cells) | cytotoxicity in U1 cells, trypan-blue dye exclusion (U1 cells; trypan-blue dye exclusion assay) | IC50 ([1]; Human immunodeficiency virus 1, 96 h, read-out: IC50, constitutive HIV expression, U1 cells, 4 days) | suppression of constitutive HIV-1 expression (p24) [1] | IC50 ([1]; read-out: IC50, constitutive HIV expression, U1 cells, 4 days) | IC50 ([2]; Human immunodeficiency virus 1, 96 h, read-out: IC50, TNF-α mediated HIV expression, U1 cells, 4 days) | IC50 ([2]; U1 cells, 4 days, read-out: IC50, TNF-α mediated HIV expression) | suppression of TNFα-mediated HIV-1 expression (p24) ([2]; U1 cells) | effect on generation of myrPA species / turnover of PA subspecies [3] | long chain unsaturated PA, share of far UV absorbing lipids after preincubation ([3]; 8 μM CT2576) | long chain unsaturated PA, share of far UV absorbing lipids after 2 minutes TNF-α ([3]; 8 μM CT2576, 2 minutes of TNF-α) | short chained saturated PA subspecies ([3]; preincubation with 8 μM CT2576) | cytotoxic effect on 293-EBNA cells (Alamar Blue) (293-EBNA cells) | cytotoxicity in U1 cells at 25 μM (U1 cells; 25 μM, FIG. 12 bottom panel, TNFα)
CCCCCCCCNCC(O)CCCCCCCCCn1c(=O)c2c(ncn2C)n(C)c1=O (stereo not shown) [CT2576, 1-(11-octylamino-10-hydroxyundecyl)-3,7-dimethylxanthine] | > 35 µM | no cytotoxicity | ~1 µM | the most effective; also recorded: inhibited; also recorded: suppressed constitutive HIV-1 expression | < 1 µM | ~1 µM | < 1 µM | suppressed HIV-1 expression; also recorded: the most effective; also recorded: inhibited | affected the turnover of PA subspecies; also recorded: affects the generation of myrPA species | 15% | 20% | less after CT2576 preincubation than without treatment; also recorded: very little change with addition of TNF-α |  | 
CCCCCCCCNCC(O)CCCCCCCCCN1C(=O)CCN(C)C1=O (stereo not shown) [CT1829, 3-(11-octylamino-10-hydroxyundecyl)-1-methyldihydrouracil] |  |  |  | suppressed constitutive HIV-1 expression |  |  |  | suppressed HIV-1 expression |  |  |  |  | no significant cytotoxic effect | some cytotoxicity
